Test results published in patent US12139520B2 (priority 2020, dated 2024).
Numbered stars: 1 amine (or outer) side, 2 acyl side, 3 side chain; on linkers, the order of the positions; unused ones are H or OH. Bridge positions count the residues as written; N and C are the ends. Square brackets hold non-standard residues; d marks the D form. Peptide text beside a SMILES is read from it. * marks the point of attachment. C20 diacid = O=C(O)CCCCCCCCCCCCCCCCCCC(=O)*; γGlu = O=C(O)[C@H](CCC(=O)[*:2])N[*:1]; Hyp = O=C(O)[C@@H]1C[C@@H](O)CN1

Target: T1, hAMY3 receptor (Homo sapiens, UniProt O60896+P30988)
T1 sequence (P30988 25-474): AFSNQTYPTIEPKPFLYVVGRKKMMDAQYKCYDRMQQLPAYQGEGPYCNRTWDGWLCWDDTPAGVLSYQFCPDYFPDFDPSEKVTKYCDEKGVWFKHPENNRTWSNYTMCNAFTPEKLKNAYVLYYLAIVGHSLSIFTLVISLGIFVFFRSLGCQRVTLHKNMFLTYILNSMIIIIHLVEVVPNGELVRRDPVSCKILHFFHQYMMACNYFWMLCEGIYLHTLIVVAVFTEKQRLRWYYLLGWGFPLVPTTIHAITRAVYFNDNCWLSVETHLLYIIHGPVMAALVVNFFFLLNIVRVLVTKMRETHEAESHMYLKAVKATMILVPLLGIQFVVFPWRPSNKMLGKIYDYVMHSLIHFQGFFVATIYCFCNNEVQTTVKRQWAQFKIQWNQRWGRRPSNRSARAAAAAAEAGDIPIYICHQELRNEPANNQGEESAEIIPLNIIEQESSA
T1 sequence (O60896 24-148 partner): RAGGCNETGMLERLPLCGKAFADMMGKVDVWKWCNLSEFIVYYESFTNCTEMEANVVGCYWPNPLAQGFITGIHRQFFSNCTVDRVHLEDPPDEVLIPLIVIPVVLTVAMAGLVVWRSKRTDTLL
Assay: cAMP assay for in vitro receptor activation, hAMY3-R
Type: cell-based
Conditions: cAMP assay, hAMY3 receptor; read-out: hAMY3R EC50
Procedure, shortened: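 Accumulated cAMP was detected by time-resolved FRET one hour after reagent addition. Beforehand, hAMY3-R-overexpressing monoclonal cells (2000/well, DPBS, 0.05% casein, 0.5 mM IBMX) received graded doses of compound for 30 min at room temperature; human amylin served as positive control.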

SMILES	EC50 [nM]
CC[C@H](C)[C@H](NC(=O)[C@H](CCC(N)=O)NC(=O)[C@H](Cc1c[nH]cn1)NC(=O)[C@H](C)NC(=O)[C@H](CC(C)C)NC(=O)[C@H](CCCNC(=N)N)NC(=O)[C@H](CCC(N)=O)NC(=O)[C@@H](NC(=O)[C@@H](NC(=O)[C@@H]1CSSC[C@H](NC(=O)[C@@H](N)CCCCN)C(=O)N[C@@H](CC(N)=O)C(=O)N[C@@H](Cc2ccccc2)C(=O)N[C@@H](C)C(=O)N[C@@H]([C@@H](C)O)C(=O)N1)[C@@H](C)O)C(C)C)C(=O)N[C@@H](Cc1ccc(O)cc1)C(=O)N[C@@H](CCC(N)=O)C(=O)N[C@@H](Cc1ccccc1)C(=O)N[C@H](C(=O)N[C@@H](CC(=O)O)C(=O)N[C@@H](CCCCN)C(=O)N[C@@H](CC(=O)O)C(=O)N[C@@H](CCCCN)C(=O)N[C@@H](CC(=O)O)C(=O)N[C@@H](CC(N)=O)C(=O)N[C@H](C(=O)N[C@@H](C)C(=O)N1CCC[C@H]1C(=O)N[C@@H](CCCNC(=N)N)C(=O)N[C@H](C(=O)N[C@@H](CCCCN)C(=O)N[C@H](C(=O)NCC(=O)N[C@@H](CO)C(=O)N[C@@H](CC(N)=O)C(=O)NCC(=O)N1C[C@H](O)C[C@H]1C(N)=O)C(C)C)[C@@H](C)O)C(C)C)[C@@H](C)O [compound 3] (H-KCNFATCTVQRLAHQIYQFTDKDKDNVAPRTKVGSNG[Hyp]-NH2; disulfide 2-7)	0.006
CC[C@H](C)[C@H](NC(=O)[C@H](CCCCN)NC(=O)[C@H](CO)NC(=O)[C@H](CCCNC(=N)N)NC(=O)[C@@H]1CCCN1C(=O)[C@H](C)NC(=O)[C@@H](NC(=O)[C@H](CC(N)=O)NC(=O)[C@H](CC(=O)O)NC(=O)[C@H](CCCCN)NC(=O)[C@H](CC(=O)O)NC(=O)[C@H](CCCCN)NC(=O)[C@H](CC(=O)O)NC(=O)[C@@H](NC(=O)[C@H](Cc1ccccc1)NC(=O)[C@H](CCC(N)=O)NC(=O)[C@@H](NC(=O)[C@H](CC(C)C)NC(=O)[C@H](Cc1ccccc1)NC(=O)[C@H](CC(N)=O)NC(=O)[C@H](C)NC(=O)[C@H](CC(C)C)NC(=O)[C@H](CCCNC(=N)N)NC(=O)[C@H](CCC(N)=O)NC(=O)[C@@H](NC(=O)[C@H](C)NC(=O)[C@@H]1CSSC[C@H](NC(=O)[C@@H](N)CCCCN)C(=O)N[C@@H](CC(N)=O)C(=O)N[C@@H](Cc2ccccc2)C(=O)N[C@@H](C)C(=O)N[C@@H]([C@@H](C)O)C(=O)N1)[C@@H](C)O)C(C)C)[C@@H](C)O)C(C)C)C(=O)NCC(=O)N1CCC[C@H]1C(=O)N[C@@H](CCC(N)=O)C(=O)NCC(=O)N[C@@H](Cc1ccc(O)cc1)C(N)=O [compound 363] (H-KCNFATCATQRLANFLVQFTDKDKDNVAPRSKIGPQGY-NH2; disulfide 2-7; N-terminus assumed)	0.01
CC[C@H](C)[C@H](NC(=O)[C@H](CCC(N)=O)NC(=O)[C@H](Cc1c[nH]cn1)NC(=O)[C@H](C)NC(=O)[C@H](CC(C)C)NC(=O)[C@H](CCCNC(=N)N)NC(=O)[C@H](CCC(N)=O)NC(=O)[C@@H](NC(=O)[C@@H](NC(=O)[C@@H]1CSSC[C@H](NC(=O)CN)C(=O)N[C@@H](CCCNC(=N)N)C(=O)N[C@@H](Cc2ccccc2)C(=O)NCC(=O)N[C@@H]([C@@H](C)O)C(=O)N1)[C@@H](C)O)C(C)C)C(=O)N[C@@H](Cc1ccc(O)cc1)C(=O)N[C@@H](CCC(N)=O)C(=O)N[C@@H](Cc1ccccc1)C(=O)N[C@H](C(=O)N[C@@H](CC(=O)O)C(=O)N[C@@H](CCCCN)C(=O)N[C@@H](CC(=O)O)C(=O)N[C@@H](CCCCN)C(=O)N[C@@H](CC(=O)O)C(=O)N[C@@H](CC(N)=O)C(=O)N[C@H](C(=O)N[C@@H](C)C(=O)N1CCC[C@H]1C(=O)N[C@@H](CCCNC(=N)N)C(=O)N[C@H](C(=O)N[C@@H](CCCCN)C(=O)N[C@H](C(=O)NCC(=O)N1CCC[C@H]1C(=O)N[C@@H](CCC(N)=O)C(=O)NCC(=O)N[C@@H](Cc1ccc(O)cc1)C(N)=O)C(C)C)[C@@H](C)O)C(C)C)[C@@H](C)O [compound 368] (H-GCRFGTCTVQRLAHQIYQFTDKDKDNVAPRTKVGPQGY-NH2; disulfide 2-7; N-terminus assumed)	0.015
CC(C)C[C@H](NC(=O)[C@H](CCCNC(=N)N)NC(=O)[C@H](CCC(N)=O)NC(=O)[C@@H](NC(=O)[C@@H](NC(=O)[C@@H]1CSSC[C@H](NC(=O)CNC(=O)CC[C@H](NC(=O)CCCCCCCCCCCCCCCCCCC(=O)O)C(=O)O)C(=O)N[C@@H](CCCNC(=N)N)C(=O)N[C@@H](Cc2ccccc2)C(=O)NCC(=O)N[C@@H]([C@@H](C)O)C(=O)N1)[C@@H](C)O)C(C)C)C(=O)N[C@@H](C)C(=O)N[C@@H](CC(N)=O)C(=O)N[C@@H](Cc1ccccc1)C(=O)N[C@@H](CC(C)C)C(=O)N[C@@H](Cc1ccc(O)cc1)C(=O)N[C@@H](CCC(N)=O)C(=O)N[C@@H](Cc1ccccc1)C(=O)N[C@H](C(=O)N[C@@H](CC(=O)O)C(=O)N[C@@H](CCCCN)C(=O)N[C@@H](CC(=O)O)C(=O)N[C@@H](CCCCN)C(=O)N[C@@H](CC(=O)O)C(=O)N[C@@H](CC(N)=O)C(=O)N[C@H](C(=O)N[C@@H](C)C(=O)N1CCC[C@H]1C(=O)N[C@@H](CCCNC(=N)N)C(=O)N[C@H](C(=O)N[C@@H](CC(N)=O)C(=O)N[C@H](C(=O)NCC(=O)N1CCC[C@H]1C(=O)N[C@@H](CCC(N)=O)C(=O)NCC(=O)N[C@@H](Cc1ccc(O)cc1)C(N)=O)C(C)C)[C@@H](C)O)C(C)C)[C@@H](C)O [compound 386] ({C20 diacid-γGlu}-GCRFGTCTVQRLANFLYQFTDKDKDNVAPRTNVGPQGY-NH2; disulfide 2-7)	0.039

The remaining lines, values ahead:

EC50 [nM]	SMILES
0.024	CC(C)C[C@H](NC(=O)[C@H](CCCNC(=N)N)NC(=O)[C@H](CCC(N)=O)NC(=O)[C@@H](NC(=O)[C@@H](NC(=O)[C@@H]1CSSC[C@H](NC(=O)CN)C(=O)N[C@@H](CCCNC(=N)N)C(=O)N[C@@H](Cc2ccccc2)C(=O)NCC(=O)N[C@@H]([C@@H](C)O)C(=O)N1)[C@@H](C)O)C(C)C)C(=O)N[C@@H](C)C(=O)N[C@@H](Cc1c[nH]cn1)C(=O)N[C@@H](Cc1ccccc1)C(=O)N[C@@H](CC(C)C)C(=O)N[C@@H](Cc1ccc(O)cc1)C(=O)N[C@@H](CCC(N)=O)C(=O)N[C@@H](Cc1ccccc1)C(=O)N[C@H](C(=O)N[C@@H](CC(=O)O)C(=O)N[C@@H](CCCCN)C(=O)N[C@@H](CC(=O)O)C(=O)N[C@@H](CCCCN)C(=O)N[C@@H](CC(=O)O)C(=O)N[C@@H](CC(N)=O)C(=O)N[C@H](C(=O)N[C@@H](C)C(=O)N1CCC[C@H]1C(=O)N[C@@H](CCCNC(=N)N)C(=O)N[C@H](C(=O)N[C@@H](CCCCN)C(=O)N[C@H](C(=O)NCC(=O)N[C@@H](CO)C(=O)N[C@@H](CC(N)=O)C(=O)NCC(=O)N[C@@H](Cc1ccc(O)cc1)C(N)=O)C(C)C)[C@@H](C)O)C(C)C)[C@@H](C)O [compound 117] (H-GCRFGTCTVQRLAHFLYQFTDKDKDNVAPRTKVGSNGY-NH2; disulfide 2-7; N-terminus assumed)
0.012	CC(C)C[C@H](NC(=O)[C@H](CCCNC(=N)N)NC(=O)[C@H](CCC(N)=O)NC(=O)[C@@H](NC(=O)[C@@H](NC(=O)[C@@H]1CSSC[C@H](NC(=O)CN)C(=O)N[C@@H](CCCNC(=N)N)C(=O)N[C@@H](Cc2ccccc2)C(=O)NCC(=O)N[C@@H]([C@@H](C)O)C(=O)N1)[C@@H](C)O)C(C)C)C(=O)N[C@@H](C)C(=O)N[C@@H](Cc1c[nH]cn1)C(=O)N[C@@H](Cc1ccccc1)C(=O)N[C@@H](CC(C)C)C(=O)N[C@@H](Cc1ccc(O)cc1)C(=O)N[C@@H](CCC(N)=O)C(=O)N[C@@H](Cc1ccccc1)C(=O)N[C@H](C(=O)N[C@@H](CC(=O)O)C(=O)N[C@@H](CCCCN)C(=O)N[C@@H](CC(=O)O)C(=O)N[C@@H](CCCCN)C(=O)N[C@@H](CC(=O)O)C(=O)N[C@@H](CC(N)=O)C(=O)N[C@H](C(=O)N[C@@H](C)C(=O)N1CCC[C@H]1C(=O)N[C@@H](CCCNC(=N)N)C(=O)N[C@H](C(=O)N[C@@H](CC(N)=O)C(=O)N[C@H](C(=O)NCC(=O)N[C@@H](CO)C(=O)N[C@@H](CC(N)=O)C(=O)N[C@H](C(=O)N[C@@H](Cc1ccc(O)cc1)C(N)=O)[C@@H](C)O)C(C)C)[C@@H](C)O)C(C)C)[C@@H](C)O [compound 56] (H-GCRFGTCTVQRLAHFLYQFTDKDKDNVAPRTNVGSNTY-NH2; disulfide 2-7; N-terminus assumed)
0.01	CC[C@H](C)[C@H](NC(=O)[C@H](CC(N)=O)NC(=O)[C@@H](NC(=O)[C@H](CCCNC(=N)N)NC(=O)[C@@H]1CCCN1C(=O)[C@H](C)NC(=O)[C@@H](NC(=O)[C@H](CC(N)=O)NC(=O)[C@H](CC(=O)O)NC(=O)[C@H](CCCCN)NC(=O)[C@H](CC(=O)O)NC(=O)[C@H](CCCCN)NC(=O)[C@H](CC(=O)O)NC(=O)[C@@H](NC(=O)[C@H](Cc1ccccc1)NC(=O)[C@H](CCC(N)=O)NC(=O)[C@H](Cc1ccc(O)cc1)NC(=O)[C@H](CC(C)C)NC(=O)[C@H](Cc1ccccc1)NC(=O)[C@H](Cc1c[nH]cn1)NC(=O)[C@H](C)NC(=O)[C@H](CC(C)C)NC(=O)[C@H](CCCNC(=N)N)NC(=O)[C@H](CCC(N)=O)NC(=O)[C@@H](NC(=O)[C@@H](NC(=O)[C@@H]1CSSC[C@H](NC(=O)CN)C(=O)N[C@@H](CCCNC(=N)N)C(=O)N[C@@H](Cc2ccccc2)C(=O)NCC(=O)N[C@@H]([C@@H](C)O)C(=O)N1)[C@@H](C)O)C(C)C)[C@@H](C)O)C(C)C)[C@@H](C)O)C(=O)NCC(=O)N1CCC[C@H]1C(=O)N[C@@H](CCC(N)=O)C(=O)NCC(=O)N[C@@H](Cc1ccc(O)cc1)C(N)=O [compound 364] (H-GCRFGTCTVQRLAHFLYQFTDKDKDNVAPRTNIGPQGY-NH2; disulfide 2-7)
